US10080366B2, “Agent for increasing sugar content in fruit” (RIKEN, priority 2012, dated 2018)
Where two headings read alike, the source gives them in different places.

Columns and labels:
[1] = system: fruit of grape (variety: Red Globe)
Experimental: Agents for increasing a sugar content in a fruit (containing Sorbon T-20 as a spreader/sticker at a final concentration of 200 μL/L) diluted with water to have the concentrations of potassium hydrogen carbonate shown in Table 4 were prepared. The mass of fruit of grape (variety: Red Globe) purchased on the market was measured. Then, the prepared agents for increasing a sugar content in a fruit were applied by spraying to the fruit of grape, which was then allowed to stand in an air-conditioned greenhouse (temperature: 25° C.). The mass of the fruit of grape was measured over time (date of application: Mar. 10, 2011). In addition, as a control, the mass of untreated grape was measured on each date of measurement in the same manner. […] Note that the decrease ratio (cumulative, %) represents the percentage (%) of the mass decreased from the date of application to each of the dates of measurement, and the decrease ratio (%/day) represents the average ratio (%) of decrease in mass in a period between each of the dates of measurement and the preceding date of measurement (=(the mass (g) on the preceding date of measurement of each of the dates of measurement−the mass (g) on the date of measurement)/the mass (g) on the preceding date of measurement of the date of measurement/the number of days from the preceding date of measurement of the date of measurement to the date of measurement×100).

[2] = system: clusters of grape (variety: Crimson); experiment: Estimated transpiration ratio of grape clusters (Example 9); type: in vivo; conditions: 10 g/L; 8 days after treatment
[3] = system: Mikan; conditions: dilution ratio 100 (10 g/L); 6 days after treatment
[4] = system: Pinot noir; experiment: Acceptability of fruit for wine (Example 11); type: in vivo, grape; conditions: Example 1 sample
Text: As in the case where agriculture workers check whether or not a berry can be used for wine, the criteria of the acceptability were based the appearance (appearance associated with mold, rot, or the like, whether or not the fruit juice or fruit pulp was lost, and the like), taste (whether or not the berry was normal, when eaten, and the like), and odor (whether or not a foreign odor or the like was present). A berry having no problem in terms of any of the appearance, taste, and odor was determined to be acceptable, and a berry having any problem was determined to be not acceptable.

`O=C([O-])O.[K+]` [Potassium hydrogen carbonate, potassium hydrogen carbonate] was tested, and the “ratio of decrease in mass compared with untreated” value ([1]; 5 g/L and 10 g/L) was “higher ratios of decrease in mass than the untreated fruit”, the “Mass” value ([1]; 5 g/L, Mar. 10 (date of application)) was 240.4 g and the “Decrease ratio (%/day)” value ([1]; 5 g/L, Mar. 11) was 2.6 %/day. For the same compound, the “Decrease ratio (cumulative %)” value ([1]; 5 g/L, Mar. 11) was 2.6%, the “Mass” value ([1]; 5 g/L, Mar. 11) was 234.1 g and the “Decrease ratio (%/day)” value ([1]; 5 g/L, Mar. 14) was 2.5 %/day. The “Decrease ratio (cumulative %)” value ([1]; 5 g/L, Mar. 14) was 9.9%, the “Mass” value ([1]; 5 g/L, Mar. 14) was 216.7 g and the “Decrease ratio (%/day)” value ([1]; 5 g/L, Mar. 15) was 2.5 %/day. The “Decrease ratio (cumulative %)” value ([1]; 5 g/L, Mar. 15) was 12.1%, the “Mass” value ([1]; 5 g/L, Mar. 15) was 211.4 g and the “Decrease ratio (%/day)” value ([1]; 5 g/L, Mar. 16) was 2.2 %/day. The “Decrease ratio (cumulative %)” value ([1]; 5 g/L, Mar. 16) was 14.0%, the “Mass” value ([1]; 5 g/L, Mar. 16) was 206.7 g and the “Decrease ratio (%/day)” value ([1]; 5 g/L, Mar. 18) was 2.1 %/day. The “Decrease ratio (cumulative %)” value ([1]; 5 g/L, Mar. 18) was 17.7%, the “Mass” value ([1]; 5 g/L, Mar. 18) was 197.8 g and the “Decrease ratio (%/day)” value ([1]; 5 g/L, Mar. 22) was 2.0 %/day. For the same compound, the “Decrease ratio (cumulative %)” value ([1]; 5 g/L, Mar. 22) was 24.1%, the “Mass” value ([1]; 5 g/L, Mar. 22) was 182.4 g and the “Decrease ratio (%/day)” value ([1]; 5 g/L, Mar. 23) was 2.8 %/day. For the same compound, the “Decrease ratio (cumulative %)” value ([1]; 5 g/L, Mar. 23) was 26.3%, the “Mass” value ([1]; 5 g/L, Mar. 23) was 177.3 g and the “Decrease ratio (%/day)” value ([1]; 5 g/L, Mar. 24) was 2.2 %/day. For the same compound, the “Decrease ratio (cumulative %)” value ([1]; 5 g/L, Mar. 24) was 27.8%, the “Mass” value ([1]; 5 g/L, Mar. 24) was 173.5 g and the “Decrease ratio (%/day)” value ([1]; 5 g/L, Mar. 30) was 2.3 %/day. For the same compound, the “Decrease ratio (cumulative %)” value ([1]; 5 g/L, Mar. 30) was 37.8%, the “Mass” value ([1]; 5 g/L, Mar. 30) was 149.4 g and the “Mass” value ([1]; 10 g/L, Mar. 10 (date of application)) was 200.5 g. For the same compound, the “Decrease ratio (%/day)” value ([1]; 10 g/L, Mar. 11) was 2.9 %/day, the “Decrease ratio (cumulative %)” value ([1]; 10 g/L, Mar. 11) was 2.9% and the “Mass” value ([1]; 10 g/L, Mar. 11) was 194.8 g. The “Decrease ratio (%/day)” value ([1]; 10 g/L, Mar. 14) was 3 %/day, the “Decrease ratio (cumulative %)” value ([1]; 10 g/L, Mar. 14) was 11.6% and the “Mass” value ([1]; 10 g/L, Mar. 14) was 177.2 g. The “Decrease ratio (%/day)” value ([1]; 10 g/L, Mar. 15) was 3.3 %/day, the “Decrease ratio (cumulative %)” value ([1]; 10 g/L, Mar. 15) was 14.5% and the “Mass” value ([1]; 10 g/L, Mar. 15) was 171.4 g. For the same compound, the “Decrease ratio (%/day)” value ([1]; 10 g/L, Mar. 16) was 2.9 %/day, the “Decrease ratio (cumulative %)” value ([1]; 10 g/L, Mar. 16) was 17.0% and the “Mass” value ([1]; 10 g/L, Mar. 16) was 166.5 g. For the same compound, the “Decrease ratio (%/day)” value ([1]; 10 g/L, Mar. 18) was 2.7 %/day, the “Decrease ratio (cumulative %)” value ([1]; 10 g/L, Mar. 18) was 21.5% and the “Mass” value ([1]; 10 g/L, Mar. 18) was 157.4 g. For the same compound, the “Decrease ratio (%/day)” value ([1]; 10 g/L, Mar. 22) was 2.5 %/day, the “Decrease ratio (cumulative %)” value ([1]; 10 g/L, Mar. 22) was 29.5% and the “Mass” value ([1]; 10 g/L, Mar. 22) was 141.3 g. The “Decrease ratio (%/day)” value ([1]; 10 g/L, Mar. 23) was 3.6 %/day, the “Decrease ratio (cumulative %)” value ([1]; 10 g/L, Mar. 23) was 32.0% and the “Mass” value ([1]; 10 g/L, Mar. 23) was 136.3 g. For the same compound, the “Decrease ratio (%/day)” value ([1]; 10 g/L, Mar. 24) was 2.8 %/day, the “Decrease ratio (cumulative %)” value ([1]; 10 g/L, Mar. 24) was 33.9% and the “Mass” value ([1]; 10 g/L, Mar. 24) was 132.5 g. For the same compound, the “Decrease ratio (%/day)” value ([1]; 10 g/L, Mar. 30) was 2.9 %/day, the “Decrease ratio (cumulative %)” value ([1]; 10 g/L, Mar. 30) was 45.3% and the “Mass” value ([1]; 10 g/L, Mar. 30) was 109.7 g. The “Estimated transpiration ratio (%) Average” value [2] was 31%, the “Estimated transpiration ratio (%) First” value [2] was 33% and the “Estimated transpiration ratio (%) Second” value [2] was 28%. The “Ratio (%) of decrease in body weight of fruit” value [3] was 12.6%, the “Acceptable ratio (%) of fruit” value ([4]; 5 g/L) was 75% and the “Acceptable ratio (%) of fruit” value ([4]; 10 g/L) was 80%.
